A word on the solubility (mole fraction): it is solubility expressed as the solute's share of all molecules. Take `CC(=O)O[C@H]1CC[C@@]2(C)C(=CC[C@@H]3[C@@H]2CC[C@]2(C)C(c4cccnc4)=CC[C@@H]32)C1`: the solubility (mole fraction) was found to be 0.0128 (in acetone, 296 K); 0.0181 (in acetone, 310 K); 0.0021 (in acetonitrile, 296 K); 0.0027 (in acetonitrile, 310 K); 0.0111 (in ethanol, 296 K); 0.0127 (in ethanol, 310 K). In addition, the solubility (mole fraction) reads like this: (in isopropanol, 296 K) 0.0133; (in isopropanol, 310 K) 0.0145; (in methanol, 296 K) 0.00544; (in methanol, 310 K) 0.00648; (in n-propanol, 296 K) 0.0242; (in n-propanol, 310 K) 0.0279.

Consider `C[C@]12CC[C@H](O)CC1=CC[C@@H]1[C@@H]2CC[C@]2(C)C(c3cccnc3)=CC[C@@H]12`, for which the solubility (mole fraction) was 0.00249 (in THF, 296 K); 0.00393 (in THF, 310 K); 4.44e-05 (in acetonitrile, 296 K); 6.46e-05 (in acetonitrile, 310 K); 0.00102 (in ethanol, 296 K); 0.00126 (in ethanol, 310 K). The solubility (mole fraction) by setting is: (in isopropanol, 296 K) 0.00168; (in isopropanol, 310 K) 0.0015; (in methanol, 296 K) 0.000523; (in methanol, 310 K) 0.000656; (in n-propanol, 296 K) 0.00178; (in n-propanol, 310 K) 0.00256.

The values are drawn from BigSolDB 2.1.
